Results on 47 molecules are retold here after US12577250B2, “1,2,4-triazolone derivative as DHODH inhibitor, and preparation method therefor and use thereof” (WIGEN BIOMEDICINE TECHNOLOGY (SHANGHAI) CO., LTD., priority 2021, dated 2026).

One assay relates to MV-4-11 cells. The assay can be described thus: Anti-proliferative activity on MV-4-11 cells (CellTiter-Lumi, 72 h). It is filed as cell-based. To be noted: Homo sapiens, MV4-11, 72 h, read-out: Cell anti-proliferative activity IC50 MV-4-11. As for the experimental part:
MV-4-11 cells were seeded into a 384-well plate (Fisher 142762) at 3000 cells per well. The next day, serially diluted compounds were added, and 72 h after the addition, CellTiter-Lumi (Beyotime C0068XL) was added to measure the ATP content in the cells. The growth of the cells was evaluated, and IC50 of the compounds against cell growth was calculated.

For another assay, the target named is DHODH (Homo sapiens, UniProt Q02127). Kind of assay: Assay against enzyme activity of DHODH (DCIP absorption at 600 nm). The class given is biochemical. The method, then: The enzyme activity of DHODH was assayed through a cascade reaction to determine its ability to catalyze the oxidation of a natural substrate DHO (dihydroorotic acid) to orotic acid while reducing coenzyme Q. The enzyme activity of DHODH was indirectly detected by assaying the ability of the coenzyme Q to reduce a chromogenic substrate DCIP. After the compound and an enzyme reaction mixture were incubated for 5 min, a reaction substrate DHO was added to start the reaction, and the enzyme activity was assayed by assaying the absorption at 600 nm to detect the DCIP exhaustion in a timed manner.

Each structure is given as a SMILES string. Like-named read-outs stand apart in the source and are kept apart here.

Chain of DHODH (Q02127 whole entry): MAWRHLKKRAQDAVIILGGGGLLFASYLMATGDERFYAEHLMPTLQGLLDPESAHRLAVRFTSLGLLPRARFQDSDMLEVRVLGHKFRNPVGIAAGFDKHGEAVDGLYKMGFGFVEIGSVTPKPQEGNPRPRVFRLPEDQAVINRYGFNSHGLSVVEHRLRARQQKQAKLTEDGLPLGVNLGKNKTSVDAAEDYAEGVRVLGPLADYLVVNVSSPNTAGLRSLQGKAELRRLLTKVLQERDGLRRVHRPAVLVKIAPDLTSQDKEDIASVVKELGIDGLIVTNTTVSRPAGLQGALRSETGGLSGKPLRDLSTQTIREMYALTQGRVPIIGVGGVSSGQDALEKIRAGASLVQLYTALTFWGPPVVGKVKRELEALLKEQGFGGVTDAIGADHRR

One may read the IC50 as the point on the concentration scale where inhibition reaches its midpoint. With `C[C@H](Oc1cc(-n2nc3n(c2=O)CCC2(CC2)C3)c(F)cc1C(=O)Nc1ccc(F)cc1Cl)C(F)(F)F` [Compound 21], the figures for the IC50 in the assay on MV-4-11 cells (class symbols) and against DHODH were ≤ 50 nM and < 50 nM, respectively.

For the molecule `Cc1ccccc1NC(=O)c1cc(F)c(-n2nc3n(c2=O)CCC2(CC2)C3)cc1O[C@@H](C)C(F)(F)F` [Compound 5], the IC50 with MV-4-11 cells (class symbols) was ≤ 50 nM; at DHODH it was < 50 nM. The matching figures for `C[C@H](Oc1cc(-n2nc3n(c2=O)CCC2(CC2)C3)c(F)cc1C(=O)Nc1cc(Cl)ccc1F)C(F)(F)F` [Compound 20]: ≤ 50 nM and < 50 nM. For `CCc1ccccc1NC(=O)c1cc(F)c(-n2nc3n(c2=O)CCC2(CC2)C3)cc1O[C@@H](C)C(F)(F)F` [Compound 6], the IC50 with MV-4-11 cells (class symbols) is ≤ 50 nM; against DHODH, < 50 nM. On to `Cc1n[nH]c(C)c1NC(=O)c1cc(F)c(-n2nc3n(c2=O)CCC2(CC2)C3)cc1O[C@@H](C)C(F)(F)F` [Compound 38], for which the results for the IC50 with MV-4-11 cells and against DHODH were 21.4 nM and < 50 nM, respectively. Consider `COc1nccc(Cl)c1NC(=O)c1cc(F)c(-n2nc3n(c2=O)CCC2(CC2)C3)cc1O[C@@H](C)C(F)(F)F` [Compound 37], for which the IC50 was 10.5 nM with MV-4-11 cells and < 50 nM at DHODH. In the case of `CCC[C@H](C)Oc1cc(-n2nc3n(c2=O)CCC2(CC2)C3)c(F)cc1C(=O)Nc1c(F)cccc1Cl` [Compound 42], the concentration for half-maximal inhibition (IC50) in the assay with MV-4-11 cells (class symbols) is ≤ 50 nM; against DHODH, < 50 nM. The like results for `C[C@H](Oc1cc(-n2nc3n(c2=O)CCC2(CC2)C3)c(F)cc1C(=O)Nc1c(Cl)ccc(F)c1F)C(F)(F)F` [Compound 31] were, in that order, ≤ 50 nM and < 50 nM. As to `C[C@H](Oc1cc(-n2nc3n(c2=O)CCC2(CC2)C3)c(F)cc1C(=O)Nc1ccccc1F)C(F)(F)F` [Compound 2], in the assay with MV-4-11 cells, the IC50 came to 4.56 nM. With `C[C@H](Oc1cc(-n2nc3n(c2=O)CCC2(CC2)C3)c(F)cc1C(=O)Nc1c(F)cccc1Cl)C1CCCC1` [Compound 46], the IC50 was ≤ 50 nM in the assay with MV-4-11 cells (class symbols) and < 50 nM against DHODH. As for `C[C@H](Oc1cc(-n2nc3n(c2=O)CCC2(CC2)C3)c(F)cc1C(=O)Nc1ccccc1C(F)(F)F)C(F)(F)F` [Compound 3], the values for the IC50 in the assay on MV-4-11 cells and on DHODH were 5.45 nM and < 50 nM, respectively. `C[C@H](Oc1cc(-n2nc3n(c2=O)CCC2(CC2)C3)c(F)cc1C(=O)Nc1ccc(N)cc1C(F)(F)F)C(F)(F)F` [Compound 26]: the IC50 in the assay with MV-4-11 cells (class symbols) was ≤ 50 nM; against DHODH, < 50 nM. The matching figures for `Cc1c(F)cccc1NC(=O)c1cc(F)c(-n2nc3n(c2=O)CCC2(CC2)C3)cc1O[C@@H](C)C(F)(F)F` [Compound 23]: ≤ 50 nM and < 50 nM.

As to `Cc1cccc(Cl)c1NC(=O)c1cc(F)c(-n2nc3n(c2=O)CCC2(CC2)C3)cc1O[C@@H](C)C(F)(F)F` [Compound 12], the values for the IC50 with MV-4-11 cells and against DHODH were 1.45 nM and < 50 nM, respectively. As to `C[C@H](Oc1cc(-n2nc3n(c2=O)CCC2(CC2)C3)c(F)cc1C(=O)Nc1c(F)cccc1F)C(F)(F)F` [Compound 10], the IC50 in the assay on MV-4-11 cells stood at 2.24 nM. For `C[C@H](Oc1cc(-n2nc3n(c2=O)CCC2(CC2)C3)c(F)cc1C(=O)Nc1ccccc1C(F)F)C(F)(F)F` [Compound 4], the 50% inhibitory concentration (IC50) is ≤ 50 nM with MV-4-11 cells (class symbols) and < 50 nM on DHODH.

Consider `C[C@H](Oc1cc(-n2nc3n(c2=O)CCC2(CC2)C3)c(F)cc1C(=O)Nc1c(F)cccc1C(F)(F)F)C(F)(F)F` [Compound 14], for which the IC50 in the assay on MV-4-11 cells (class symbols) was ≤ 50 nM; against DHODH, < 50 nM. For `Cc1cccc(F)c1NC(=O)c1cc(F)c(-n2nc3n(c2=O)CCC2(CC2)C3)cc1O[C@@H](C)C(F)(F)F` [Compound 11], the IC50 in the assay on MV-4-11 cells came out at 2.13 nM. With `Cc1c(Cl)cccc1NC(=O)c1cc(F)c(-n2nc3n(c2=O)CCC2(CC2)C3)cc1O[C@@H](C)C(F)(F)F` [Compound 24], the IC50 in the assay with MV-4-11 cells (class symbols) was ≤ 50 nM; on DHODH it was < 50 nM.

On to `COc1ncc(C)c(NC(=O)c2cc(F)c(-n3nc4n(c3=O)CCC3(CC3)C4)nc2O[C@@H](C)C2CCCCC2)c1Cl` [Compound 58], for which the figures for the IC50 with MV-4-11 cells and against DHODH were 0.75 nM and < 50 nM, respectively.

Turning to `Cc1cccc(NC(=O)c2cc(F)c(-n3nc4n(c3=O)CCC3(CC3)C4)cc2O[C@@H](C)C(F)(F)F)c1` [Compound 7], the IC50 in the assay on MV-4-11 cells (class symbols) is ≤ 50 nM; against DHODH, < 50 nM.

Turning to `CC[C@H](C)Oc1cc(-n2nc3n(c2=O)CCC2(CC2)C3)c(F)cc1C(=O)Nc1c(F)cccc1Cl` [Compound 41], the IC50 in the assay on MV-4-11 cells (class symbols) is ≤ 50 nM; at DHODH, < 50 nM. The like results for `C[C@H](Oc1cc(-n2nc3n(c2=O)CCC2(CC2)C3)c(F)cc1C(=O)Nc1c(F)cccc1Cl)C1CC1` [Compound 44] were, in that order, ≤ 50 nM and < 50 nM. Regarding `Cc1cccc(N)c1NC(=O)c1cc(F)c(-n2nc3n(c2=O)CCC2(CC2)C3)cc1O[C@@H](C)C(F)(F)F` [Compound 17], the IC50 in the assay with MV-4-11 cells (class symbols) is ≤ 50 nM. Take `COc1ncc(C)c(NC(=O)c2cc(F)c(-n3nc4n(c3=O)CCC3(CC3)C4)nc2O[C@@H](C)C(F)(F)F)c1Cl` [Compound 57]: the IC50 in the assay on MV-4-11 cells is 0.32 nM; against DHODH, < 50 nM.

On to `C[C@H](Oc1cc(-n2nc3n(c2=O)CCC2(CC2)C3)c(F)cc1C(=O)Nc1c(Cl)cccc1Cl)C(F)(F)F` [Compound 13], for which the IC50 in the assay with MV-4-11 cells is 1.56 nM; at DHODH, < 50 nM. As for `C[C@H](Oc1cc(-n2nc3n(c2=O)CCC2(CC2)C3)c(F)cc1C(=O)Nc1c(F)cc(F)cc1Cl)C(F)(F)F` [Compound 27], the values for the IC50 in the assay on MV-4-11 cells (class symbols) and against DHODH were ≤ 50 nM and < 50 nM, respectively. Consider `CCC[C@H](C)Oc1cc(-n2nc3n(c2=O)CCCC2(CC2)C3)c(F)cc1C(=O)Nc1c(F)cccc1Cl` [Compound 53], for which the IC50 with MV-4-11 cells is 6.89 nM; at DHODH it was < 50 nM. As for `C[C@H](Oc1cc(-n2nc3n(c2=O)CCC2(CC2)C3)c(F)cc1C(=O)Nc1cccc(Cl)c1)C(F)(F)F` [Compound 8], the figures for the IC50 with MV-4-11 cells (class symbols) and at DHODH were ≤ 50 nM and < 50 nM, respectively. `COc1ccnc(C)c1NC(=O)c1cc(F)c(-n2nc3n(c2=O)CCC2(CC2)C3)cc1O[C@@H](C)C(F)(F)F` [Compound 35]: the IC50 was 6.79 nM in the assay on MV-4-11 cells and < 50 nM at DHODH.

Turning to `Cc1n[nH]c(Cl)c1NC(=O)c1cc(F)c(-n2nc3n(c2=O)CCC2(CC2)C3)cc1O[C@@H](C)C(F)(F)F` [Compound 39], the IC50 in the assay on MV-4-11 cells was 65.8 nM; against DHODH, < 50 nM. With `Cc1ccc(Cl)c(NC(=O)c2cc(F)c(-n3nc4n(c3=O)CCC3(CC3)C4)cc2O[C@@H](C)C(F)(F)F)c1C` [Compound 32], the IC50 in the assay on MV-4-11 cells (class symbols) is ≤ 50 nM; against DHODH, < 50 nM. Consider `COc1cccc(C)c1NC(=O)c1cc(F)c(-n2nc3n(c2=O)CCC2(CC2)C3)cc1O[C@@H](C)C(F)(F)F` [Compound 18], for which, in the assay with MV-4-11 cells (class symbols), the IC50 is ≤ 50 nM. For the molecule `Cc1ccnc(Cl)c1NC(=O)c1cc(F)c(-n2nc3n(c2=O)CCC2(CC2)C3)cc1O[C@@H](C)C(F)(F)F` [Compound 36], the IC50 with MV-4-11 cells is 12.4 nM; at DHODH, < 50 nM.

As for `Cc1cc(F)cc(Cl)c1NC(=O)c1cc(F)c(-n2nc3n(c2=O)CCC2(CC2)C3)cc1O[C@@H](C)C(F)(F)F` [Compound 29], the IC50 in the assay on MV-4-11 cells (class symbols) was ≤ 50 nM; on DHODH it was < 50 nM.

On to `CC(C)[C@H](C)Oc1cc(-n2nc3n(c2=O)CCC2(CC2)C3)c(F)cc1C(=O)Nc1c(F)cccc1Cl` [Compound 43], for which the IC50 was ≤ 50 nM with MV-4-11 cells (class symbols) and < 50 nM against DHODH. For `COc1cc(F)c(NC(=O)c2cc(F)c(-n3nc4n(c3=O)CCC3(CC3)C4)cc2O[C@@H](C)C(F)(F)F)c(F)c1` [Compound 30], the IC50 is ≤ 50 nM in the assay on MV-4-11 cells (class symbols) and < 50 nM against DHODH. The matching figures for `Cc1cc(N)ccc1NC(=O)c1cc(F)c(-n2nc3n(c2=O)CCC2(CC2)C3)cc1O[C@@H](C)C(F)(F)F` [Compound 25]: ≤ 50 nM and < 50 nM. As for `C[C@H](Oc1nc(-n2nc3n(c2=O)CCC2(CC2)C3)c(F)cc1C(=O)Nc1c(F)cccc1Cl)C1CCCCC1` [Compound 55], the figures for the IC50 in the assay on MV-4-11 cells and at DHODH were 1.45 nM and < 50 nM, respectively.

Turning to `C[C@H](Oc1cc(-n2nc3n(c2=O)CCC2(CC2)C3)c(F)cc1C(=O)Nc1c(Cl)cc(F)cc1Cl)C(F)(F)F` [Compound 28], the IC50 was ≤ 50 nM with MV-4-11 cells (class symbols) and < 50 nM on DHODH. The like results for `CC(C)Oc1cc(-n2nc3n(c2=O)CCC2(CC2)C3)c(F)cc1C(=O)Nc1c(F)cccc1Cl` [Compound 40] were, in that order, ≤ 50 nM and < 50 nM. In the case of `CCC[C@H](C)Oc1nc(-n2nc3n(c2=O)CCC2(CC2)C3)c(F)cc1C(=O)Nc1c(C)cnc(OC)c1Cl` [Compound 59], the IC50 is 2.05 nM in the assay with MV-4-11 cells and < 50 nM at DHODH. The like results for `CCC[C@H](C)Oc1nc(-n2nc3n(c2=O)CCC2(CC2)C3)c(F)cc1C(=O)Nc1c(F)cccc1Cl` [Compound 56] were, in that order, 1.97 nM and < 50 nM.

`C[C@H](Oc1cc(-n2nc3n(c2=O)CC2(CC2)C3)c(F)cc1C(=O)Nc1c(F)cccc1Cl)C(F)(F)F` [Compound 48]: the IC50 with MV-4-11 cells is 10.7 nM; at DHODH, < 50 nM. With `C[C@H](Oc1cc(-n2nc3n(c2=O)CCCC2(CC2)C3)c(F)cc1C(=O)Nc1c(F)cccc1Cl)C1CCCCC1` [Compound 52], the IC50 is ≤ 50 nM in the assay with MV-4-11 cells (class symbols) and < 50 nM on DHODH.

Regarding `Cc1cccc(C(F)(F)F)c1NC(=O)c1cc(F)c(-n2nc3n(c2=O)CCC2(CC2)C3)cc1O[C@@H](C)C(F)(F)F` [Compound 16], the results for the IC50 with MV-4-11 cells (class symbols) and against DHODH were ≤ 50 nM and < 50 nM, respectively. As for `COc1cccc(C)c1NC(=O)c1cc(F)c(-n2nc3n(c2=O)CCC2(CC2)C3)cc1O[C@@H](C)C(F)(F)F` [Compound 15], in the assay on MV-4-11 cells, the IC50 was found to be 3.42 nM.
